Measurements from patent publication US4238620A, “Dibenz[b,f]oxepin and dibenzo[b,f]thiepin derivatives, process for preparation thereof, method of using the same, and compositions thereof” (priority 1978, dated 1980).
“Also recorded” adds a separate entry of the source.

Experiments:
[1] = test system: Carrageenin-induced hind paw oedema in rats; test: Carrageenin-induced hind paw oedema in rats (CAR method), acute inflammation; type: in vivo; details: Rattus norvegicus, po, read-out: Anti-inflammatory activity ED50, acute inflammation, CAR
Experimental: (§1) (1) Effect on acute inflammation:
(a) Carrageenin-induced hind paw oedema in rats (CAR method)
The test was carried out according to the method described in Proc. Soc. Exp. Biol. Med., 111, 544 (1962).

[2] = test system: Ultraviolet-induced erythema in guinea-pigs; test: Ultraviolet-induced erythema in guinea-pigs (UVE method), acute inflammation; type: in vivo; details: Cavia porcellus, po, read-out: Anti-inflammatory activity ED50, acute inflammation, UVE
Experimental: as §1
(b) Ultraviolet-induced erythema in guinea-pigs (UVE method)
The test was carried out according to the method described in Arch. Int. Pharmacodyn. Ther., 116, 261 (1958).

[3] = test system: adjuvant-induced arthritis in rats; test: Therapeutic activity on adjuvant-induced arthritis in rats (AAT method), subacute and chronic inflammation; type: in vivo; details: Rattus norvegicus, po, read-out: Minimum Effective Dose, subacute and chronic inflammation, AAT*
Experimental: (§2) (2) Effect on subacute and chronic inflammations:
(a) Therapeutic activity on adjuvant-induced arthritis in rats (AAT method)
The test was carried out according to the method described in Brit. J. Pharmacol., 21, 127 (1963) and Japan J. Pharmacol., 23, 58 (1973).

[4] = test system: Felt pellet-induced granuloma formation in rats; test: Felt pellet-induced granuloma formation in rats (FGF method), subacute and chronic inflammation; type: in vivo; details: Rattus norvegicus, po, read-out: Minimum Effective Dose, subacute and chronic inflammation, FGF*
Experimental: as §2
(b) Felt pellet-induced granuloma formation in rats (FGF method)
The test was carried out according to the method described in J. Amer. Pharm. Assoc., 46, 515 (1957) and Chem. Pharm. Bull., 23, 1446 (1975).

[5] = test system: AgNO3-induced joint pain in rats; test: AgNO3-induced joint pain in rats (AGP method), analgesic activity; type: in vivo; details: Rattus norvegicus, po, read-out: Analgesic activity ED50, AGP
Experimental: (§3) TEST 2. ANALGESIC ACTIVITY
(a) AgNO3 -induced joint pain in rats (AGP method)
The test was carried out according to the method described in J. Pharmacol. Expt. Ther., 98, 19 (1950)

[6] = test system: Acetic acid (AcOH)-induced writhing in rats; test: Acetic acid (AcOH)-induced writhing in rats (ACW method), analgesic activity; type: in vivo; details: Rattus norvegicus, po, read-out: Analgesic activity ED50, ACW
Experimental: as §3
(b) Acetic acid (AcOH)-induced writhing in rats (ACW method)
The test was carried out according to the method described in Arzneim. Forsch., 25, 1505 (1975).

[7] = test system: Yeast-induced fever in rats; test: Yeast-induced fever in rats (YEF method), antipyretic activity; type: in vivo; details: Rattus norvegicus, po, read-out: Antipyretic activity ED50, YEF
Experimental: TEST 3. ANTIPYRETIC ACTIVITY
Yeast-induced fever in rats (YEF method)
The test was carried out according to the method described in Arzneim. Forsch., 13, 338 (1963).

[8] = Gastrointestinal ulcer formation in fed rats (ulcerogenicity); type: in vivo; details: rat, in vivo, po, fed rats; read-out: UD50 (50% ulcer forming dose)
Experimental: (§4) TEST 4. ULCEROGENICITY IN GASTROINTESTINAL TRACT
(§5) Gastrointestinal ulcer formation in fed rats
(§6) The test was carried out according to the method described in Science, 170, 183 (1970).

[9] = test system: Gastrointestinal ulcer formation in fed rats; test: as above; type: in vivo
Experimental: as §4, §5, §6

in vivo [10] = details: rat, po, rats, single administration, 7th day, read-out: LD50 Single
in vivo [11] = details: rat, po, rats, once daily for 5 days, mortality on 6th day, read-out: LD50 Repeated
Experimental: (§7) (b) Repeated administrations in rats
(§8) Test compounds were orally administered once daily for 5 days, and LD50 -value was calculated from the mortality on the 6th day.

[12] = Overall comparison of anti-inflammatory, analgesic and antipyretic activities (Tests 1 to 3); type: in vivo, rats; guinea-pigs; details: for anti-inflammatory, analgesic and antipyretic activities compared with indomethacin: vs indomethacin (compound 3)
Text: (§9) From these diagrams, the correlation between the pharmacological activity of each compound and its ulcerogenicity and toxicity, i.e. the safety margin of each compound, can be clearly seen. In these Figures, the lines and letters have the following meanings:
(§10) The following conclusions can be drawn from Tables I to III and FIGS. 1 and 2. In the following description, the therapeutic index means LD50 /ED50 (or MED), and the safety index means UD50 /ED50 (or MED). The safety margin of a given compound is broader when it has larger therapeutic and or safety indices.

[13] = type: in vivo; details: for therapeutic index compared with indomethacin: vs indomethacin
Text: In the following description, the therapeutic index means LD50 /ED50 (or MED), and the safety index means UD50 /ED50 (or MED).

[14] = Safety index (UD50/ED50 or MED), separation of activity from ulcerogenicity; type: in vivo; details: for separation of anti-inflammatory, analgesic and antipyretic activities from ulcerogenicity: FIGS. 1 and 2, vs indomethacin
Text: as §9, §10

rats = test: Overall comparison of lethal toxicity (Test 5); type: in vivo; details: for toxicity compared with indomethacin (in words): vs indomethacin
Experimental: (a) Single administration in rats
as §7, §8

[15] = cited from earlier work
[16] = cited from earlier work; remark: listed apart in the source

SMILES	ED50 [1]	ED50 [2]	minimal effective dose [3]	minimal effective dose [4]	ED50 [5]	ED50 [6]	ED50 [7]	TD50 [8]	LD50 at 144 h (in vivo [11])	anti-inflammatory, analgesic and antipyretic activities compared with indomethacin [12]	therapeutic index compared with indomethacin [13]	separation of anti-inflammatory, analgesic and antipyretic activities from ulcerogenicity [14]	toxicity compared with indomethacin (in words) (rats)	further results
Cc1ccc2c(c1)CC(=O)c1cc(C(C)C(=O)OCCOCCO)ccc1O2 (racemic) [compound E, 2-(2-Hydroxyethoxy)ethyl dl-2-(8-methyl-10,11-dihydro-11-oxodibenz[b,f]oxepin-2-yl)propionate]	3.61 mg/kg	1.41 mg/kg	0.2 mg/kg/day	2 mg/kg/day	3.8 mg/kg	0.27 mg/kg	0.055 mg/kg	4.04 mg/kg	> 16 mg/kg	equivalent or superior to those of indomethacin	far larger therapeutic indices than indomethacin	more separated from ulcerogenicity in the gastrointestinal tract than in indomethacin; also recorded: Especially good separation	far weaker than those of indomethacin	ulcerogenicity and toxicity compared with compound A ([9]; ulcerogenicity together with toxicity, vs compound A): weaker than those of compound A; LD50 at 168 h (in vivo [10]): 219 mg/kg; pharmacological activities compared with compound 1 ([12]; vs compound 1): equivalent to, or more potent, than those of compound 1; pharmacological activities compared with compound A ([12]; vs compound A): somewhat inferior to those of compound A; average safety and therapeutic indices compared with compound A ([13]; safety and therapeutic indices, vs compound A): comparable to those of compound A; breadth of safety margin compared with compound 1 ([13]; safety margin, vs compound 1): better
O=C(O)Cc1ccc2c(c1)CC(=O)c1ccccc1S2 [10,11-dihydro-10-oxodibenzo[b,f]thiepin-2-acetic acid]	–	–	–	–	–	–	–	–	–	–	–	–	–	anti-inflammatory activity relative to phenylbutazone [15]: 0.4 time; analgesic activity relative to aspirin [16]: equivalent to that of aspirin
Cc1ccc2c(c1)CC(=O)c1cc(C(C)C(=O)O)ccc1S2 (racemic) [compound C, dl-2-(8-Methyl-10,11-dihydro-11-oxodibenzo[b,f]thiepin-2-yl)propionic acid]	2.08 mg/kg	0.85 mg/kg	< 0.2 mg/kg/day	1 mg/kg/day	1.41 mg/kg	0.84 mg/kg	0.015 mg/kg	2.76 mg/kg	> 12 mg/kg	equivalent or superior to those of indomethacin	far larger therapeutic indices than indomethacin	more separated from ulcerogenicity in the gastrointestinal tract than in indomethacin; also recorded: Especially good separation	far weaker than those of indomethacin	ulcerogenicity relative to compound 2 ([9]; fraction of that of compound 2): about 1/4; pharmacological activities compared with compound 2 ([12]; vs compound 2): comparable or slightly inferior to those of compound 2; average therapeutic index relative to compound 2 ([13]; LD50/ED50 (or MED), vs compound 2): more than 5 times; breadth of safety margin compared with compound 2 ([13]; safety margin, vs compound 2): far superior to compound 2; average safety index relative to compound 2 ([14]; UD50/ED50 (or MED), vs compound 2): about 4 times; toxicity relative to compound 2 (rats; fraction of that of compound 2): less than 1/6
